Assay results taken from the NIST ThermoML archive (doi:10.1016/j.fluid.2004.11.020).
Numbers after ± are expanded uncertainties.

Assay: Solid-liquid equilibrium temperature
Settings: closed cylinder with variable piston

For CCCCCCCCCCCCCCCC [hexadecane], the Solid-liquid equilibrium temperature (9210 kPa, Crystal) was 293.15 ± 0.3 K, the Solid-liquid equilibrium temperature (50650 kPa, Crystal) was 303.15 ± 0.58 K and the Solid-liquid equilibrium temperature (95560 kPa, Crystal) was 313.15 ± 0.9 K. The Solid-liquid equilibrium temperature (143920 kPa, Crystal) was 323.15 ± 1.2 K, the Solid-liquid equilibrium temperature (195740 kPa, Crystal) was 333.15 ± 1.5 K and the Solid-liquid equilibrium temperature (251030 kPa, Crystal) was 343.15 ± 1.9 K.
Work on CCCCCCCCCCCCCCCCCC [octadecane] yielded a Solid-liquid equilibrium temperature (8860 kPa, Crystal) of 303.15 ± 0.3 K, a Solid-liquid equilibrium temperature (49600 kPa, Crystal) of 313.15 ± 0.57 K and a Solid-liquid equilibrium temperature (94900 kPa, Crystal) of 323.15 ± 0.88 K. For the same molecule, the Solid-liquid equilibrium temperature (144780 kPa, Crystal) was 333.15 ± 1.2 K, the Solid-liquid equilibrium temperature (199220 kPa, Crystal) was 343.15 ± 1.5 K and the Solid-liquid equilibrium temperature (258230 kPa, Crystal) was 353.15 ± 1.8 K.
In the case of CCCCCCCCCCCCC [tridecane], the Solid-liquid equilibrium temperature (100 kPa, Crystal 1) is reported as 268.21 ± 0.24 K, the Solid-liquid equilibrium temperature (133010 kPa, Crystal 1) is reported as 293.15 ± 1 K and the Solid-liquid equilibrium temperature (197120 kPa, Crystal 1) is reported as 303.15 ± 1.2 K. For the same molecule, the Solid-liquid equilibrium temperature (265400 kPa, Crystal 1) was 313.15 ± 1.6 K, the Solid-liquid equilibrium temperature (337830 kPa, Crystal 1) was 323.15 ± 1.9 K and the Solid-liquid equilibrium temperature (414420 kPa, Crystal 1) was 333.15 ± 2.2 K. The Solid-liquid equilibrium temperature (495170 kPa, Crystal 1) was 343.15 ± 2.5 K.
